Assay results published in ChEMBL document CHEMBL1153188, “Quinoline-3-carboxamide containing sulfones as liver X receptor (LXR) agonists with binding selectivity for LXRbeta and low blood-brain penetration” (Bioorg Med Chem Lett, 2010).

Legend:
[1] = system: THP-1; assay: Stimulation of [3H]cholesterol efflux in human THP1 foam cells loaded with ac-LDL relative to TO901317; format: functional, cell-based
[2] = target: T1, Oxysterols receptor LXR-beta (Homo sapiens, UniProt P55055); assay: Displacement of [3H]TO901317 from human recombinant LXRbeta expressed in Escherichia coli by flashplate method
T1 sequence (P55055 whole entry): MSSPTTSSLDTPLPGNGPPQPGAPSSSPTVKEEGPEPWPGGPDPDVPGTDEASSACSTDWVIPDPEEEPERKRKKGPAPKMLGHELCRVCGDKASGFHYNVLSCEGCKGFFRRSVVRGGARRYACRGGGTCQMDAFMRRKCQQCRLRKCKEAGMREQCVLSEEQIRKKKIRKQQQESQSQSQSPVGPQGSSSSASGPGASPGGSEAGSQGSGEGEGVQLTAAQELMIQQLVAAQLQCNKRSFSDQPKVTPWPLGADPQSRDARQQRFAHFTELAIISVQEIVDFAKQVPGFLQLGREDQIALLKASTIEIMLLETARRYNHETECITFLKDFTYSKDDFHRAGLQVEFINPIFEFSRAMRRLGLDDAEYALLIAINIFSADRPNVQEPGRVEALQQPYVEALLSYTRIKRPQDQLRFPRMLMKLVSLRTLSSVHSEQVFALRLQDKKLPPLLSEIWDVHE

[3] = target: T2, Oxysterols receptor LXR-alpha (Homo sapiens, UniProt Q13133); assay: Displacement of [3H]TO901317 from human recombinant LXRalpha expressed in Escherichia coli by flashplate method
T2 sequence (Q13133 whole entry): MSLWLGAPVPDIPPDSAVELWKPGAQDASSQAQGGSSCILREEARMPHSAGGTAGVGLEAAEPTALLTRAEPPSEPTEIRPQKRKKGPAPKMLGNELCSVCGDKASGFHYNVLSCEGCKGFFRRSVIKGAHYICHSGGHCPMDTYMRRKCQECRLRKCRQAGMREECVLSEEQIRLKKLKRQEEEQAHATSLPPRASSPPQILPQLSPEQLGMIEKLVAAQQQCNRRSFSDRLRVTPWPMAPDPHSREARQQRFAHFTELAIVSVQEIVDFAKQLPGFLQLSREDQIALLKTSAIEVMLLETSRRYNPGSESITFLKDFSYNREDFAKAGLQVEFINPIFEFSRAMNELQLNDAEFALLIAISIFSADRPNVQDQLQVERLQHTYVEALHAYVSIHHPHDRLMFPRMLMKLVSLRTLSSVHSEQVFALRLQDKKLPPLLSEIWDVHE

[4] = system: HepG2; assay: Effect on triglyceride accumulation in human HepG2 cells relative to TO901317; format: functional
[5] = target: T1, Oxysterols receptor LXR-beta
[6] = target: T2, Oxysterols receptor LXR-alpha
[7] = system: HepG2; assay: Effect on triglyceride accumulation in human HepG2 cells; format: functional, cell-based
[8] = system: THP-1; assay: Effect on ABCA1 gene expression in human differentiated THP1 cells relative to TO901317; format: functional
[9] = system: THP-1; assay: Effect on ABCA1 gene expression in human differentiated THP1 cells; format: functional, cell-based
[10] = Cmax in Long Evans rat plasma at 10 mg/kg, po; format: ADME, organism-based; design: dose 10 mg/kg, route oral
[11] = system: Plasma; assay: AUC (0 to infinity) in Long Evans rat plasma at 10 mg/kg, po; format: ADME, organism-based; design: time infinity, dose 10 mg/kg, route oral; settings: in vivo
[12] = system: Plasma; assay: AUC (0 to infinity) in Long Evans rat brain at 10 mg/kg, po; format: ADME, organism-based; design: time infinity, dose 10 mg/kg, route oral; settings: in vivo
[13] = system: THP-1; assay: Stimulation of [3H]cholesterol efflux in human THP1 foam cells loaded with ac-LDL; format: functional, cell-based
[14] = Ratio of AUC (0 to infinity) in brain to AUC (0 to infinity) in plasma in Long Evans rat at 10 mg/kg, po; format: ADME, organism-based; design: dose 10 mg/kg, route oral; settings: brain and plasma
[15] = Cmax in Long Evans rat brain at 10 mg/kg, po; format: ADME, organism-based; design: dose 10 mg/kg, route oral
[16] = system: Plasma; assay: AUC (0 to infinity) in Long Evans rat brain at 30 mg/kg, po; format: ADME, organism-based; design: time infinity, dose 30 mg/kg, route oral; settings: in vivo
[17] = Cmax in Long Evans rat brain at 30 mg/kg, po; format: ADME, organism-based; design: dose 30 mg/kg, route oral
[18] = system: Plasma; assay: AUC (0 to infinity) in Long Evans rat plasma at 30 mg/kg, po; format: ADME, organism-based; design: time infinity, dose 30 mg/kg, route oral; settings: in vivo
[19] = Ratio of AUC (0 to infinity) in brain to AUC (0 to infinity) in plasma in Long Evans rat at 30 mg/kg, po; format: ADME, organism-based; design: dose 30 mg/kg, route oral; settings: brain and plasma
[20] = Cmax in Long Evans rat plasma at 30 mg/kg, po; format: ADME, organism-based; design: dose 30 mg/kg, route oral

SMILES	IC50 [2]	IC50 [3]	other results
O=C(O)Cc1ccc(COc2cccc(-c3c(Cc4ccccc4)cnc4c(C(F)(F)F)cccc34)c2)cc1			Activity [1]: 88%
CCS(=O)(=O)c1cccc(Oc2cccc(-c3c(C(N)=O)cnc4c(C(F)(F)F)cccc34)c2)c1	11 nM	453 nM	
CCOC(=O)c1cnc2c(C(F)(F)F)cccc2c1-c1cccc(Oc2cccc(S(C)(=O)=O)c2)c1	2 nM	6.6 nM	
CS(=O)(=O)c1cccc(Oc2cccc(-c3c(C(=O)O)cnc4c(C(F)(F)F)cccc34)c2)c1	1080 nM	6350 nM	
CS(=O)(=O)c1cccc(Oc2cccc(-c3c(-n4cnnn4)cnc4c(C(F)(F)F)cccc34)c2)c1	5290 nM	26600 nM	
CS(=O)(=O)c1cccc(Oc2cccc(-c3c(CN)cnc4c(C(F)(F)F)cccc34)c2)c1	77 nM	445 nM	
CS(=O)(=O)c1cccc(Oc2cccc(-c3c(C(=N)N)cnc4c(C(F)(F)F)cccc34)c2)c1	5130 nM	29800 nM	
CS(=O)(=O)c1cc(F)cc(Oc2cccc(-c3c(C(N)=O)cnc4c(C(F)(F)F)cccc34)c2)c1	18 nM	552 nM	
CS(=O)(=O)c1cccc(Oc2cccc(-c3c(C(N)=O)cnc4c(C(F)(F)F)cccc34)c2)c1	18 nM	600 nM	Efficacy [4]: 47%; EC50 [5]: 1600 nM; EC50 [6]: 4500 nM; EC50 [7]: 370 nM; Efficacy [8]: 104%; EC50 [9]: 110 nM
CNC(=O)c1cnc2c(C(F)(F)F)cccc2c1-c1cccc(Oc2cccc(S(C)(=O)=O)c2)c1	367 nM	> 10000 nM	
CS(=O)(=O)c1cccc(Oc2cccc(-c3c(C(N)=O)cnc4c(Cl)cccc34)c2)c1	16 nM	543 nM	Efficacy [4]: 68%; Cmax [10]: 1270 ng/mL; AUC [11]: 5417 ng/mL; EC50 [5]: 630 nM; AUC [12]: 457 ng/mL; EC50 [6]: 3000 nM; EC50 [7]: 1250 nM; Efficacy [8]: 107%; EC50 [9]: 440 nM; EC50 [13]: 10 nM; Activity [1]: 71%; Kp [14]: 0.08; Cmax [15]: 107 ng/mL
CC(C)S(=O)(=O)c1cccc(Oc2cccc(-c3c(C(N)=O)cnc4c(C(F)(F)F)cccc34)c2)c1	5 nM	286 nM	
CS(=O)(=O)c1cccc(Oc2cccc(-c3c(C(N)=O)cnc4c(F)cccc34)c2)c1	590 nM	12700 nM	
CS(=O)(=O)c1cccc(Oc2cccc(-c3c(C#N)cnc4c(C(F)(F)F)cccc34)c2)c1	2.2 nM	13.4 nM	
CCNC(=O)c1cnc2c(C(F)(F)F)cccc2c1-c1cccc(Oc2cccc(S(C)(=O)=O)c2)c1	730 nM	6860 nM	
CS(=O)(=O)c1cc(Cl)cc(Oc2cccc(-c3c(C(N)=O)cnc4c(C(F)(F)F)cccc34)c2)c1	62 nM	1770 nM	
Cc1cccc2c(-c3cccc(Oc4cccc(S(C)(=O)=O)c4)c3)c(C(N)=O)cnc12	28 nM	756 nM	
CCCS(=O)(=O)c1cccc(Oc2cccc(-c3c(C(N)=O)cnc4c(C(F)(F)F)cccc34)c2)c1	57 nM	1360 nM	
CS(=O)(=O)c1cccc(Oc2cccc(-c3c(C(N)=O)cnc4ccccc34)c2)c1	2850 nM	> 10000 nM	
Fc1ccc(-c2c3cccc(C(F)(F)F)c3nn2Cc2ccc(F)cc2Cl)cc1 [LXR-623]			Efficacy [4]: 38%; EC50 [7]: 1000 nM; AUC [16]: 15312 ng/mL; Cmax [17]: 3530 ng/mL; AUC [18]: 13057 ng/mL; Efficacy [8]: 100%; Kp [19]: 1.2; Cmax [20]: 2850 ng/mL
